The compounds below were run on hepatocellular carcinoma cell line Hub-7 (assay: Cell proliferation assay (CELL-TITER GLO cell viability)). Settings: 24 h, Hub-7 cells, 24 h incubation, read-out: Inhibition of Cell Proliferation EC50.
Format: cell-based
How it was run: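 […] cells (4,000/well) seeded overnight, then exposed 24 h to compound from 10 μM in 3-fold serial dilutions. Viability read by CELL-TITER GLO luminescence; EC50 values derived.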

SMILES | EC50
C#CC(=O)N(c1cccc(-c2ccn(C)n2)c1)C1(C(=O)NCc2ccccc2)CCOCC1 [A136, N-Benzyl-4-(N-(3-(1-methyl-1H-pyrazol-3-yl)phenyl)propiolamido)tetrahydro-2H-pyran-4-carboxamide] | 100 to 500 nM
C#CC(=O)N(Cc1cc[nH]n1)C1(C(=O)NCc2ccccc2)CCOCC1 [A137, 4-(N-((1H-Pyrazol-3-yl)methyl)propiolamido)-N-benzyltetrahydro-2H-pyran-4-carboxamide] | > 10000 nM
C#CC(=O)N(c1ccccc1N1CCOCC1)C1(C(=O)NCc2ccccc2)CCOCC1 [A139, N-Benzyl-4-(N-(2-morpholinophenyl)propiolamido)tetrahydro-2H-pyran-4-carboxamide] | ≤ 100 nM
C#CC(=O)N(c1ccc(N(C)C)cc1)C1(C(=O)NCc2ccccc2)CCOCC1 [A140, N-Benzyl-4-(N-(4-(dimethylamino)phenyl)propiolamido)tetrahydro-2H-pyran-4-carboxamide] | 100 to 500 nM
C#CC(=O)N(c1cccc2c1OCO2)C1(C(=O)NCc2ccccc2)CCOCC1 [A141, 4-(N-(Benzo[d][1,3]dioxol-4-yl)propiolamido)-N-benzyltetrahydro-2H-pyran-4-carboxamide] | ≤ 100 nM
C#CC(=O)N(C1(C(=O)NCc2ccccc2)CCOCC1)C1(c2ccccc2)CC1 [A144, N-Benzyl-4-(N-(1-phenylcyclopropyl)propiolamido)tetrahydro-2H-pyran-4-carboxamide] | ≤ 100 nM
C#CC(=O)N(c1cccc2c1CCC2=O)C1(C(=O)NCc2ccccc2)CCOCC1 [A148, N-Benzyl-4-(N-(1-oxo-2,3-dihydro-1H-inden-4-yl)propiolamido)tetrahydro-2H-pyran-4-carboxamide] | ≤ 100 nM
C#CC(=O)N(c1ccc2c(c1)C(=O)OC2)C1(C(=O)NCc2ccccc2)CCOCC1 [A149, N-Benzyl-4-(N-(3-oxo-1,3-dihydroisobenzofuran-5-yl)propiolamido)tetrahydro-2H-pyran-4-carboxamide] | ≤ 100 nM
C#CC(=O)N(c1ccc2[nH]ncc2c1)C1(C(=O)NCc2ccccc2)CCOCC1 [A150, 4-(N-(1H-Indazol-5-yl)propiolamido)-N-benzyltetrahydro-2H-pyran-4-carboxamide] | 100 to 500 nM
C#CC(=O)N(c1ccc2c(c1)OCO2)C1(C(=O)NCc2ccccc2)CCOCC1 [A151, 4-(N-(Benzo[d][1,3]dioxol-5-yl)propiolamido)-N-benzyltetrahydro-2H-pyran-4-carboxamide] | 100 to 500 nM
C#CC(=O)N(c1ccc2[nH]ccc2c1)C1(C(=O)NCc2ccccc2)CCOCC1 [A152, 4-(N-(1H-Indol-5-yl)propiolamido)-N-benzyltetrahydro-2H-pyran-4-carboxamide] | 2000 to 10000 nM
C#CC(=O)N(c1ccc2c(ccn2C)c1)C1(C(=O)NCc2ccccc2)CCOCC1 [A153, N-Benzyl-4-(N-(1-methyl-1H-indol-5-yl)propiolamido)tetrahydro-2H-pyran-4-carboxamide] | ≤ 100 nM
C#CC(=O)N(c1ccc2ncn(C)c2c1)C1(C(=O)NCc2ccccc2)CCOCC1 [A154, N-Benzyl-4-(N-(1-methyl-1H-benzo[d]imidazol-6-yl)propiolamido)tetrahydro-2H-pyran-4-carboxamide] | 500 to 2000 nM
C#CC(=O)N(c1ccc2scnc2c1)C1(C(=O)NCc2ccccc2)CCOCC1 [A155, 4-(N-(Benzo[d]thiazol-5-yl)propiolamido)-N-benzyltetrahydro-2H-pyran-4-carboxamide] | 100 to 500 nM
C#CC(=O)N(c1ccc2c(c1)ncn2C)C1(C(=O)NCc2ccccc2)CCOCC1 [A156, N-Benzyl-4-(N-(1-methyl-1H-benzo[d]imidazol-5-yl)propiolamido)tetrahydro-2H-pyran-4-carboxamide] | 500 to 2000 nM
C#CC(=O)N(c1ccc(OC)cc1OC)C1(C(=O)NCc2ccccc2)CCOCC1 [A157, N-Benzyl-4-(N-(2,4-dimethoxyphenyl)propiolamido)tetrahydro-2H-pyran-4-carboxamide] | ≤ 100 nM
C#CC(=O)N(c1cccc2nsnc12)C1(C(=O)NCc2ccccc2)CCOCC1 [A161, 4-(N-(Benzo[c][1,2,5]thiadiazol-4-yl)propiolamido)-N-benzyltetrahydro-2H-pyran-4-carboxamide] | ≤ 100 nM
C#CC(=O)N(c1ccc2c(cnn2C)c1)C1(C(=O)NCc2ccccc2)CCOCC1 [A162, N-Benzyl-4-(N-(1-methyl-1H-indazol-5-yl)propiolamido)tetrahydro-2H-pyran-4-carboxamide] | ≤ 100 nM
C#CC(=O)N(c1ccn2cnnc2c1)C1(C(=O)NCc2ccccc2)CCOCC1 [A163, 4-(N-([1,2,4]Triazolo[4,3-a]pyridin-7-yl)propiolamido)-N-benzyltetrahydro-2H-pyran-4-carboxamide] | 500 to 2000 nM

Results, then the compound that gave them:

EC50 | SMILES
≤ 100 nM | C#CC(=O)N(c1cccc(-c2cc[nH]n2)c1)C(C(=O)NCc1ccccc1)c1ccccc1 (stereo not drawn) [A134, N-(3-(1H-Pyrazol-3-yl)phenyl)-N-(2-(benzylamino)-2-oxo-1-phenylethyl)-propiolamide]
100 to 500 nM | C#CC(=O)N(c1cccc(-c2cc[nH]n2)c1)C1(C(=O)NCc2ccccc2)CCOCC1 [A135, 4-(N-(3-(1H-Pyrazol-3-yl)phenyl)propiolamido)-N-benzyltetrahydro-2H-pyran-4-carboxamide]
≤ 100 nM | C#CC(=O)N(Cc1cccc(O)c1)C1(C(=O)NCc2ccccc2)CCOCC1 [A138, N-Benzyl-4-(N-(3-hydroxybenzyl)propiolamido)tetrahydro-2H-pyran-4-carboxamide]
≤ 100 nM | C#CC(=O)N(c1cccc(Cl)c1)C(C(=O)NCC1CC1)c1ccccc1 (stereo not drawn) [A142, N-(3-Chlorophenyl)-N-(2-((cyclopropylmethyl)amino)-2-oxo-1-phenylethyl)-propiolamide]
≤ 100 nM | C#CC(=O)N(c1ccc2c(c1)C(=O)OC2)C(C(=O)NCc1ccccc1)c1ccccc1 (stereo not drawn) [A143, N-(2-(Benzylamino)-2-oxo-1-phenylethyl)-N-(3-oxo-1,3-dihydroisobenzofuran-5-yl)propiolamide]
≤ 100 nM | C#CC(=O)N(c1cc(Cl)ccc1Cl)C(C(=O)NCc1ccccc1)c1ccccc1 (stereo not drawn) [A145, N-(2-(Benzylamino)-2-oxo-1-phenylethyl)-N-(2,5-dichlorophenyl)propiolamide]
≤ 100 nM | C#CC(=O)N(c1cc2c(cc1I)OCO2)C(C(=O)NCc1ccccc1)c1ccccc1 (stereo not drawn) [A146, N-(2-(Benzylamino)-2-oxo-1-phenylethyl)-N-(6-iodobenzo[d][1,3]dioxol-5-yl)-propiolamide]
100 to 500 nM | C#CC(=O)N(c1cccn2cnnc12)C(C(=O)NCc1ccccc1)c1ccccc1 (stereo not drawn) [A147, N-([1,2,4]Triazolo[4,3-a]pyridin-8-yl)-N-(2-(benzylamino)-2-oxo-1-phenylethyl)-propiolamide]
2000 to 10000 nM | C#CC(=O)N(C1CCC(=O)N(C)C1)C(C(=O)NCc1ccccc1)c1ccccc1 (stereo not drawn) [A158, N-(2-(Benzylamino)-2-oxo-1-phenylethyl)-N-(1-methyl-6-oxopiperidin-3-yl)-propiolamide]
500 to 2000 nM | C#CC(=O)N(c1cccc(Cl)c1)C1(C(=O)NCS(=O)(=O)c2ccc(C)cc2)CCOCC1 [A159, 4-(N-(3-Chlorophenyl)propiolamido)-N-(tosylmethyl)tetrahydro-2H-pyran-4-carboxamide]
≤ 100 nM | C#CC(=O)N(c1cccc2cnn(C)c12)C(C(=O)NCc1ccccc1)c1ccccc1 (stereo not drawn) [A160, N-(2-(Benzylamino)-2-oxo-1-phenylethyl)-N-(1-methyl-1H-indazol-7-yl)propiolamide]

— patent publication US12516016B2, “GPX4 inhibitors, pharmaceutical compositions thereof, and their use for treating GPX4-mediated diseases” (EUBULUS BIOTHERAPEUTICS (HONG KONG) LIMITED, priority 2020, dated 2026)
